One molecule from publication PMC3740683, “ML212: A small-molecule probe for investigating fluconazole resistance mechanisms in Candida albicans” (Beilstein Journal of Organic Chemistry, 2013) can be followed below.

Values after ≈ are worked out from the molar mass of the structure shown.

The term IC50 denotes the point on the concentration scale where inhibition reaches its midpoint. In general, solubility refers to the dissolved amount per volume that the medium holds. A high value points to a readily soluble substance.

One data set deals with C. albicans CaCi-2. The data set can be described thus: Primary screen and dose-response retest: CaCi-2 with 8 µg/mL fluconazole (Alamar Blue growth). The data set is classed as cell-based, Candida albicans. The conditions noted are these: Candida albicans, CACI2; 37 °C, 48 hours, with test compound and 8 µg/mL (26 µM) fluconazole; average of at least three independent experiments in duplicate; inactive = negligible activity at concentrations below 26 µM. As for the experimental part:
All of the compounds prepared above were evaluated for their ability to chemosensitize the C. albicans test strains CaCi-2 and CaCi-8 towards fluconazole. […] The DMSO/fluconazole combination served as an internal control.
Protocols for cellular assays
Primary screen and dose-response retest: CaCi-2 with 8 µg/mL fluconazole […]
Clear, flat-bottom, black, 384-well plates (Corning Catalog no. 3712BC; Lot no. […]
DMSO; Fluconazole (Sequoia Research Products Ltd) 2 mg/mL stock solution in PBS; […]
(AG Scientific Catalog no. DAL 1100; Lot no.151016SA); PBS without calcium and magnesium (Cellgro Catalog no. 21-040-CV)
Synthetic defined growth medium
RPMI 1640 medium, (powder without sodium bicarbonate; Invitrogen Catalog no. […]
no. 028KO760); Glucose 40% (w/v) in water (Sigma Catalog no. G-5400); MOPS buffer […]
1) Prepare 1× RPMI medium by dissolving 10.4 grams powdered medium in 800 […]
2) Add 34.52 g MOPS. While stirring, adjust pH to 7.0 with 10 N NaOH.
3) Add 10 mL uridine solution, 50 mL glucose solution, adjust final volume to 1000 […]
Test Strain: C. albicans CaCi-2
1) Inoculate 500 µL of strain from cryopreserved stock into a 250 mL shaker flask containing 30 mL growth medium. Shake at 30 °C overnight.
2) Read OD 600 of 1 mL fungal culture in a cuvette using a standard optical density reader (Eppendorf BioPhotometer Plus), with growth medium as a background […]
3) Dilute to desired volume of fungal inoculums according to the following formula:
(1/OD measured) × (desired final volume of inoculum) × 0.3 = volume of fungal culture (µL) to add to desired volume of growth medium. When added to media in wells, this yields a calculated starting OD of the fungal inoculum of 0.00015.
1) Add fluconazole stock solution to fungal inoculum to achieve a final concentration […]
2) Add Pen/Strep at 0.1 mL per 10 mL media (1% v/v).
3) Use a Thermo Combi nL to dispense 20 µL/well of assay media into all wells.
4) Pin 25 nL test compound from compound plates into assay plates using CyBi- […]
5) Dispense 20 µL/well of culture into the assay media in all wells.
6) Incubate plates in a humidified (90% humidity) Liconic incubator at 37 °C without […]
7) Dilute Alamar Blue Reagent 1:40 in Ca/Mg-free PBS.
8) To all plates, add 5 µL/well of the diluted Alamar to a final dilution factor of 1:200.
9) Incubate the plates for an additional 2 hours.
10) Read the relative fluorescence intensity (RFU) of wells on a standard plate reader as a measure of relative fungal growth. EnVision (Perkin Elmer) plate reader setup: Ex 544 nm, Em 590 nm, bandwidth 12 nm, top read. […]
A general note: Alamar Blue is a resazurin reagent that responds to reducing activity.

Data set [1] is described as follows: Secondary assay 3: fibroblast toxicity. The data set is classed as cell-based. The conditions noted are these: mouse, NIH-3T3 fibroblasts, murine 3T3 fibroblasts. The protocol: 11) Read relative fluorescence intensity (RFU) of wells on a standard plate reader as […]
measure of relative fungal growth. EnVision (Perkin Elmer) plate reader settings: […]
Secondary assay 3: fibroblast toxicity
Clear, flat-bottom, black, 384-well plates (Corning Catalog no. 3712BC Lot no.
35808016); geldanamycin (AG Scientific Catalog no. G-1047) 15 mM stock solution in […]
DMSO; fluconazole (Sequoia Research Ltd.) 2 mg/mL stock solution in PBS; Alamar […]
Blue (AG Scientific Catalog no. DAL1100, Lot no. 151016SA); PBS w/o calcium and […]
magnesium (Cellgro Catalog no. 21-040-CV)
Optimem medium (Invitrogen Catalog no. 31985-070; Lot no. 548536); 2.5% (v/v) fetal […]
bovine serum (Hyclone Catalog no.30071.03; Lot no. ARF26748); 1% (v/v) Pen/Strep […]
Test strain: NIH-3T3 mammalian fibroblasts (ATCC CRL No. 1658) […]
1) Plate cells in 384-well plates at 6,000 cells/well in 20 µL assay medium.
2) Incubate plates overnight at 37 °C under 5% CO2.
1) After overnight culture, pin compounds into wells at 100 nL/well using the CyBio […]
CyBi-Well pinning instrument.
2) After pinning compounds, add 20 µL of assay medium supplemented with […]
fluconazole to each well. […]
6) Read the relative fluorescence intensity (RFU) of wells on a standard plate reader as a measure of relative cell growth. EnVision (Perkin Elmer) plate reader […]
setup: Ex 544 nm, Em […], bandwidth12 nm, top read.

The nature of another data set: Solubility in PBS. The data set is classed as physicochemical. The note with it: aqueous buffer.
Data set [2] deals with calcineurin-dependent signaling pathway. The data set can be described thus: Yeast-reporter assay, calcineurin-dependent signaling pathway. Type of data set: cell-based. The note with it: Saccharomyces cerevisiae. On the technique in general: Reporter assays use an easily measured gene product as a stand-in for the process of interest.

Regarding `COC(=O)Cn1nc(-c2cccc(OC)c2)c2ccccc21` [Compound 36], the IC50 in the data set with C. albicans CaCi-2 was 0.7 ± 0.3 µM; in data set [2], more than 26 µM. The molecule also gave an IC50 at 48 h in data set [1] of more than 26 µM. Further, in “Solubility in PBS”, the solubility was 55 µM (≈ 16.3 µg/mL).
